Seven compounds from patent US20230079687A1, “ALKYLRESORCINOL HOMOLOGUES AS ANTIOXIDANTS” (The Penn State Research Foundation, priority 2021, published 2023) can be followed below.

The nature of experiment [1]: Formation of lipid hydroperoxides in antioxidant-treated crackers during storage. Conditions: for storage day at which lipid hydroperoxide concentration began to increase (end of lag phase): autoxidized at 55° C. in the absence of light; for storage day at which lipid hydroperoxide concentration began to increase (end of lag phase) / course of lipid hydroperoxide formation after the lag phase (in words): FIG. 1; for order of induction periods for lipid hydroperoxides: time to reach threshold [Hydroperoxides]=0.1 mM/g cracker, FIG. 3A. The protocol: (§1) Based on the concentrations of the individual AR stock solutions previously determined, an appropriate volume, containing 153 μmol of the respective individual AR homologue, was measured into plastic centrifuge tubes to prepare individual AR homologue treatments. A treatment containing a mixture of the individual AR homologues, at their natural abundance in rye bran, was prepared by combining 25.3% of C17:0, 32.0% of C19:0, 22.6% of C21:0, 12.5% of C23:0, and 7.6% of C25:0. The same procedure was carried out with 10 mM stock solutions of orcinol, α-tocopherol, and butylated hydroxytoluene (BHT) and all treatments were dried under a stream of nitrogen. Ethanol (1.0 mL) was added to the dried treatments (and a control treatment containing no antioxidant) and mixed with 10 g of melted ISO. The antioxidant activity of each treatment was tested at 153 μmol because this corresponds to 500 ppm of C21:0 in the final cracker which is a typical antioxidant concentration used in bakery applications.
(§2) Antioxidant-treated ISO was melted at 90° C. for 10 minutes and mixed in a stand mixer (KSM95, KitchenAid, Benton Harbor, Mich., U.S.) using a beater blade for 1 minute (speed 2). Sifted flour, salt, and baking soda were added and mixed using a beater blade for 1 minute (speed 2). Water was added and mixed using a dough hook for 1 minute (speed 2). The additional flour was sprinkled onto the surface of a baking mat and incorporated into the dough by kneading by hand (30 folds). The dough was flattened by passing it through a pasta roller (KPSA, KitchenAid, Benton Harbor, Mich., U.S.) twice (thickness setting 2). The sheeted dough was cut into 2.5 cm×2.5 cm crackers and baked on an ungreased baking sheet for 9 minutes at 163° C. (FD 53-UL, Binder, Tuttlingen, Germany). After cooling to room temperature, crackers were coarsely crumbled using a mortar and pestle and weighed (0.5 g) into 10 mL amber glass headspace vials (Supelco Analytical, Bellefonte, Pa., U.S.), sealed with stainless steel screw caps with PTFE/silicone septa (Supelco Analytical, Bellefonte, Pa., U.S.), and allowed to autoxidize at 55° C. in the absence of light for up to 160 days. Crackers were analyzed for lipid hydroperoxides, headspace hexanal, and AR loss every 5 days for day 0-50, every 10 days for day 51-100, and every 20 days for the remainder of the storage time.
Lipid hydroperoxides were determined according to the method described by Shantha & Decker (1994) with slight modifications. Cracker samples (0.1 g) were finely ground using a mortar and pestle and mixed with 5.0 mL chloroform/methanol (2:1 (v/v)) by vortexing (10 seconds, 3 times). The hydroperoxide-containing lipid fraction was extracted and isolated by centrifugation at 2500×g for 10 minutes (Centrifuge 5702, A-4-38 Rotor, Eppendorf, Hamburg, Germany). To this extract (1.0 mL), 16.7 μL of an iron chloride solution (prepared by mixing 50 mL 66 mM FeSO4 in water with 50 mL 38 mM BaCl2 in 0.4 N HCl) was added followed by 16.7 μL of ammonium thiocyanate (3.9 M in water), and allowed to react at room temperature for 20 minutes. The absorbance of the samples was measured at 500 nm (GENESYS 180 UV-Vis Spectrophotometer, Thermo Fisher Scientific, Waltham, Mass., U.S.) and lipid hydroperoxides were quantified based on a standard curve prepared using cumene hydroperoxide.
Individual AR homologues (C17:0, C19:0, C21:0, C23:0, C25:0) were added separately and as a mixture (AR Mix) to ISO and subsequently incorporated into the cracker samples. The antioxidant activities of the AR homologues in crackers were compared to orcinol (a water-soluble AR), conventional antioxidants (i.e., α-tocopherol, BHT), and a control treatment (i.e., no added antioxidant). The crackers were allowed to autoxidize in the absence of light and primary (i.e., lipid hydroperoxides) and secondary products (i.e., headspace hexanal) of lipid oxidation were measured as a function of time.

The nature of experiment [2]: Formation of headspace hexanal in antioxidant-treated crackers during storage. Conditions: for storage day at which headspace hexanal began to increase (end of lag phase): autoxidized at 55° C. in the absence of light, FIG. 2; for order of induction periods for headspace hexanal: time to reach threshold [Hexanal]=1.0 mM/g cracker, FIG. 3B. The protocol: as §1, §2
Cracker samples were prepared for GC-MS analysis by adding 10 μL of 100 mg/L 2-methypentanal (internal standard) in methanol directly through the capped headspace vial's septum. The GC system consisted of a 7890B gas chromatograph (Agilent, Santa Clara, Calif., U.S.) with sample introduction by means of an autosampler (Robotic MultiPurpose Sampler, Gerstel, Mülheim, Germany). Samples were equilibrated for 10 minutes at 55° C. with continuous shaking. A 50/30 μm divinylbenzene/carboxen/polydimethylsiloxane (DVB/CAR/PDMS) (1 cm) (Supelco Analytical, Bellefonte, Pa., U.S.) solid phase microextraction (SPME) fiber was exposed to the sample headspace for 2 minutes at 55° C. The SPME fiber was desorbed for 6 minutes at 250° C. in the injection port equipped with a SPME inlet liner at a split ratio of 10:1. Volatile aldehydes were separated on a Rtx-WAX capillary column (30 m, 0.25 mm i.d., 0.25 μm film thickness) (Restek, Bellefonte, Pa., U.S.). An oven program was followed to separate the different volatile aldehydes at a constant helium carrier gas flow rate of 1.22 mL/min. The oven program was as follows: hold at 40° C. for 1 minute; ramp at 10° C./min to 75° C.; ramp at 100° C./min to 250° C.; hold at 250° C. for 1.75 minutes. Detection and quantification of hexanal and 2-methylpentanal was achieved using a single quadrupole mass spectrometer (5977B, Agilent, Santa Clara, Calif., U.S.) coupled to the GC. The MS transfer line, quadrupole, and detector temperatures were set to 250° C., 230° C., 150° C., respectively. Mass spectra were collected in electron impact mode.

Experiment [3] in a line: Antioxidant activity in the low-moisture model cracker system (overall lipid oxidation study). To be noted: 153 μmol antioxidant. The protocol:
Based on the concentrations of the individual AR stock solutions previously determined, an appropriate volume, containing 153 μmol of the respective individual AR homologue, was measured into plastic centrifuge tubes to prepare individual AR homologue treatments. […] The same procedure was carried out with 10 mM stock solutions of orcinol, α-tocopherol, and butylated hydroxytoluene (BHT) and all treatments were dried under a stream of nitrogen. Ethanol (1.0 mL) was added to the dried treatments (and a control treatment containing no antioxidant) and mixed with 10 g of melted ISO. […] Antioxidant-treated ISO was melted at 90° C. for 10 minutes and mixed in a stand mixer (KSM95, KitchenAid, Benton Harbor, Mich., U.S.) using a beater blade for 1 minute (speed 2). […] flour, salt, and baking soda were added and mixed using a beater blade for 1 minute (speed 2). Water was added and mixed using a dough hook for 1 minute (speed 2). The additional flour was sprinkled onto the surface of a baking mat and incorporated into the dough by kneading by hand (30 folds). The dough was flattened by passing it through a pasta roller (KPSA, KitchenAid, Benton Harbor, Mich., U.S.) twice (thickness setting 2). The sheeted dough was cut into 2.5 cm×2.5 cm crackers and baked on an ungreased baking sheet for 9 minutes at 163° C. (FD 53-UL, Binder, Tuttlingen, Germany). […] Individual AR homologues (C17:0, C19:0, C21:0, C23:0, C25:0) were added separately and as a mixture (AR Mix) to ISO and subsequently incorporated into the cracker samples. The antioxidant activities of the AR homologues in crackers were compared to orcinol (a water-soluble AR), conventional antioxidants (i.e., α-tocopherol, BHT), and a control treatment (i.e., no added antioxidant). The crackers were allowed to autoxidize in the absence of light and primary (i.e., lipid hydroperoxides) and secondary products (i.e., headspace hexanal) of lipid oxidation were measured as a function of time.

[4] abbreviates: 153 μmol antioxidant in crackers.
Where [5] appears, read: 153 μmol antioxidant in crackers, 55° C.
Setting [6] is: 153 μmol antioxidant in crackers, 55° C., compared to control crackers.

Entries after “also recorded” stand apart in the source; their conditions may differ.

Turning to `CCCCCCCCCCCCCCCCCCCc1cc(O)cc(O)c1` [C19:0], the “storage day at which lipid hydroperoxide concentration began to increase (end of lag phase)” value in experiment [1] (setting [4]) was found to be 25 days. Also, the “order of induction periods for lipid hydroperoxides” value (from here on “order … for lipid hydroperoxides”) in experiment [1] is listed as “AR Mix≈C23:0>C25:0>(C21:0≈C19:0)>(C19:0≈BHT)>(BHT≈orcinol)>(orcinol≈C17:0)>control>>α-tocopherol”. In addition, the “storage day at which headspace hexanal began to increase (end of lag phase)” value in experiment [2] (setting [4]) is 50 days. In addition, the “order of induction periods for headspace hexanal” value (shortened to “order … for headspace hexanal”) in experiment [2] is “C23:0>BHT>C25:0 AR Mix>C21:0>C19:0≈C17:0>control≈orcinol>>α-tocopherol”.
Consider `Cc1cc(C(C)(C)C)c(O)c(C(C)(C)C)c1` [BHT, butylated hydroxytoluene], for which the “course of lipid hydroperoxide formation after the lag phase (in words)” value (“course of lipid hydroperoxide formation” for short) in experiment [1] (setting [5]) was “slow, steady increase”. The “storage day at which lipid hydroperoxide concentration began to increase (end of lag phase)” value in experiment [1] (setting [4]) worked out at 25 days. The “order … for lipid hydroperoxides” value in experiment [1] was “AR Mix≈C23:0>C25:0>(C21:0≈C19:0)>(C19:0≈BHT)>(BHT≈orcinol)>(orcinol≈C17:0)>control>>α-tocopherol”. For the same compound, the “antioxidant activity in the low-moisture model cracker system (in words)” value (from here on “antioxidant activity”) in experiment [3] is reported as “strong antioxidant activity”. The “order … for headspace hexanal” value in experiment [2] is “C23:0>BHT>C25:0 AR Mix>C21:0>C19:0≈C17:0>control≈orcinol>>α-tocopherol”.
For the compound `CCCCCCCCCCCCCCCCCCCCCCCc1cc(O)cc(O)c1` [C23:0], the “course of lipid hydroperoxide formation” value in experiment [1] (setting [5]) is “slow, steady increase”. For the same compound, in experiment [1], the “order … for lipid hydroperoxides” value is “AR Mix≈C23:0>C25:0>(C21:0≈C19:0)>(C19:0≈BHT)>(BHT≈orcinol)>(orcinol≈C17:0)>control>>α-tocopherol”. Moreover, the “antioxidant activity” value in experiment [3] was “optimum activity; also recorded: more effective than BHT”. For the same compound, the “storage day at which headspace hexanal began to increase (end of lag phase)” value in experiment [2] (setting [4]) is reported as “still in the lag phase of lipid oxidation at the conclusion of the study”. Besides, in experiment [2], the “order … for headspace hexanal” value is on record as “C23:0>BHT>C25:0 AR Mix>C21:0>C19:0≈C17:0>control≈orcinol>>α-tocopherol”.
As for `CCCCCCCCCCCCCCCCCCCCCc1cc(O)cc(O)c1` [C21:0], the “storage day at which lipid hydroperoxide concentration began to increase (end of lag phase)” value in experiment [1] (setting [4]) came to 25 days. Besides, the “order … for lipid hydroperoxides” value in experiment [1] was “AR Mix≈C23:0>C25:0>(C21:0≈C19:0)>(C19:0≈BHT)>(BHT≈orcinol)>(orcinol≈C17:0)>control>>α-tocopherol”. In addition, in experiment [2] (setting [4]), the “storage day at which headspace hexanal began to increase (end of lag phase)” value turned out to be 70 days. In experiment [2], the “order … for headspace hexanal” value is “C23:0>BHT>C25:0 AR Mix>C21:0>C19:0≈C17:0>control≈orcinol>>α-tocopherol”.
For `CCCCCCCCCCCCCCCCCc1cc(O)cc(O)c1` [C17:0] the same measures were 25 days, “AR Mix≈C23:0>C25:0>(C21:0≈C19:0)>(C19:0≈BHT)>(BHT≈orcinol)>(orcinol≈C17:0)>control>>α-tocopherol”, 45 days and “C23:0>BHT>C25:0 AR Mix>C21:0>C19:0≈C17:0>control≈orcinol>>α-tocopherol”.
With `CCCCCCCCCCCCCCCCCCCCCCCCCc1cc(O)cc(O)c1` [C25:0], the “course of lipid hydroperoxide formation” value in experiment [1] (setting [5]) is “slow, steady increase”. The “order … for lipid hydroperoxides” value in experiment [1] is recorded as “AR Mix≈C23:0>C25:0>(C21:0≈C19:0)>(C19:0≈BHT)>(BHT≈orcinol)>(orcinol≈C17:0)>control>>α-tocopherol”. Further, the “antioxidant activity” value in experiment [3] is given as “more effective than BHT”. The “order … for headspace hexanal” value in experiment [2] is on record as “C23:0>BHT>C25:0 AR Mix>C21:0>C19:0≈C17:0>control≈orcinol>>α-tocopherol”.
Regarding `Cc1c(C)c2c(c(C)c1O)CC[C@@](C)(CCC[C@H](C)CCC[C@H](C)CCCC(C)C)O2` [α-tocopherol], the “activity concluded from lipid hydroperoxide formation” value in experiment [1] (setting [6]) is given as “prooxidant activity”. In experiment [1] (setting [4]), the “storage day at which lipid hydroperoxide concentration began to increase (end of lag phase)” value was “immediately upon storage”. Further, in experiment [1], the “order … for lipid hydroperoxides” value is “AR Mix≈C23:0>C25:0>(C21:0≈C19:0)>(C19:0≈BHT)>(BHT≈orcinol)>(orcinol≈C17:0)>control>>α-tocopherol”. Further, the “antioxidant activity” value in experiment [3] was “strong prooxidant activity”. The “activity concluded from headspace hexanal formation” value in experiment [2] (setting [6]) is recorded as “prooxidant behavior”. Also, the “storage day at which headspace hexanal began to increase (end of lag phase)” value in experiment [2] (setting [4]) was 5 days. Moreover, the “order … for headspace hexanal” value in experiment [2] is “C23:0>BHT>C25:0 AR Mix>C21:0>C19:0≈C17:0>control≈orcinol>>α-tocopherol”.
